# Measurements taken from US20240238426A1, “PROTEIN ACYLATION MODULATION BY HETEROBIFUNCTIONAL MOLECULES” (THE SCRIPPS RESEARCH INSTITUTE, priority 2021, published 2024).
# Tests used:
# H3.3-FKBP12^F36V = biological target: T1, H3.3-FKBP12^F36V (Homo sapiens, UniProt P62942+Q09472, F37V); assay: Quantitative proteomic (TMT MS) analysis of H3.3 acetylation; type: cell-based; conditions: 625 nM AceTAG-1 vs DMSO, FIG. 5A
# T1 construct: expressed in transfected cells
# Experimental: Sample preparation: Cells were split in 10 cm dishes in indicated media. The probes were added once the cells grew to 60%-70% confluency and incubated for indicated time. The cells were harvested and washed with cold DPBS twice. The pelleted cells were lysed in 1 mL lysis buffer, containing 10 mM Tris pH 7.5, 300 mM NaCl, 0.1% (v/v) NP40, 5 mM sodium butyrate, 20 mM Nicotinamide, and 1X Halt Protease Inhibitor, followed by centrifuging for 5 min at 1,000 g at 4° C. The pellets were resuspended in benzonase buffer, containing 50 mM Tris pH 7.5, 300 mM NaCl, 0.5% NP40, and 2.5 mM MgCl2. Protein concentration was normalized by DC Protein Assay (Bio-Rad) and equal amount of protein was subjected to 50 U/100 ml benzonase nuclease (Millipore Sigma) treatment.
# Samples with benzonase were incubated on ice for 30 min and centrifuged at 300 g for 3 min at 4° C. to obtain soluble chromatin fraction. Samples were diluted with dilution buffer, containing 50 mM Tris pH 7.5, 300 mM NaCl, 0.5% NP40, and 15 mM EDTA to quench the benzonase activity. Protein concentration was normalized again by DC Protein Assay (Bio-Rad) and equal amount of protein was used for HA-tag protein enrichment as described above. The beads were washed with lysis buffer and DPBS and incubated with 8 M urea and boiled in 4X SDS gel loading buffer at 95° C. for 15 min. […]
# [1] = test system: p300/CBP substrates, including c-Myc and STAT3; assay: Immunoblot of acetylation of other p300/CBP substrates in HeLa cells; type: cell-based, Human; conditions: increasing concentration
# Experimental: Immunoblotting: Cells were harvested in cold DPBS by scraping and washed with cold DPBS twice. Cell pellets were resuspended in DPBS supplemented with 5 mM sodium butyrate, 20 mM Nicotinamide, and 1X Halt Protease Inhibitor Cocktail and lysed by sonication (15 ms on, 40 ms off, 15% amplitude, 1s total on x 3). Protein concentration was determined using DC Protein Assay (Bio-Rad) and absorbance read using a CLARIOstar plate reader following manufacturer's instructions. Samples with equal protein content were boiled in 4X SDS gel loading buffer for 10 min. Proteins were separated by 10%, 12.5%, or 15% SDS-polyacrylamide gel electrophoresis and transferred to PVDF membranes using Trans-Blot Turbo RTA Mini […] LF PVDF Transfer Kit (Bio-Rad). Membranes were incubated for 1 h at room temperature with blocking buffer, followed by incubating overnight at 4° C. with primary antibodies. After washing in TBST, the secondary antibodies were incubated with the membranes at room temperature for 1 h. The membranes were washed with TBST for three times and visualized on a Bio-Rad ChemiDoc MP Imaging System with Clarity Max Western ECL substrate (Bio-Rad) or SuperSignal West Femto Chemiluminescent substrate proprietary luminol and peroxide solution kit (Thermo Scientific Pierce).
# T1 sequence (P62942 2-108 F37V limits assumed): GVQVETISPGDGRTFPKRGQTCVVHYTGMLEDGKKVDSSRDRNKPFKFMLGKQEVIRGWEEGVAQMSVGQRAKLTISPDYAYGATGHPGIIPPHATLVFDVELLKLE
# T1 sequence (Q09472 2-2414 limits assumed, stated change not applied): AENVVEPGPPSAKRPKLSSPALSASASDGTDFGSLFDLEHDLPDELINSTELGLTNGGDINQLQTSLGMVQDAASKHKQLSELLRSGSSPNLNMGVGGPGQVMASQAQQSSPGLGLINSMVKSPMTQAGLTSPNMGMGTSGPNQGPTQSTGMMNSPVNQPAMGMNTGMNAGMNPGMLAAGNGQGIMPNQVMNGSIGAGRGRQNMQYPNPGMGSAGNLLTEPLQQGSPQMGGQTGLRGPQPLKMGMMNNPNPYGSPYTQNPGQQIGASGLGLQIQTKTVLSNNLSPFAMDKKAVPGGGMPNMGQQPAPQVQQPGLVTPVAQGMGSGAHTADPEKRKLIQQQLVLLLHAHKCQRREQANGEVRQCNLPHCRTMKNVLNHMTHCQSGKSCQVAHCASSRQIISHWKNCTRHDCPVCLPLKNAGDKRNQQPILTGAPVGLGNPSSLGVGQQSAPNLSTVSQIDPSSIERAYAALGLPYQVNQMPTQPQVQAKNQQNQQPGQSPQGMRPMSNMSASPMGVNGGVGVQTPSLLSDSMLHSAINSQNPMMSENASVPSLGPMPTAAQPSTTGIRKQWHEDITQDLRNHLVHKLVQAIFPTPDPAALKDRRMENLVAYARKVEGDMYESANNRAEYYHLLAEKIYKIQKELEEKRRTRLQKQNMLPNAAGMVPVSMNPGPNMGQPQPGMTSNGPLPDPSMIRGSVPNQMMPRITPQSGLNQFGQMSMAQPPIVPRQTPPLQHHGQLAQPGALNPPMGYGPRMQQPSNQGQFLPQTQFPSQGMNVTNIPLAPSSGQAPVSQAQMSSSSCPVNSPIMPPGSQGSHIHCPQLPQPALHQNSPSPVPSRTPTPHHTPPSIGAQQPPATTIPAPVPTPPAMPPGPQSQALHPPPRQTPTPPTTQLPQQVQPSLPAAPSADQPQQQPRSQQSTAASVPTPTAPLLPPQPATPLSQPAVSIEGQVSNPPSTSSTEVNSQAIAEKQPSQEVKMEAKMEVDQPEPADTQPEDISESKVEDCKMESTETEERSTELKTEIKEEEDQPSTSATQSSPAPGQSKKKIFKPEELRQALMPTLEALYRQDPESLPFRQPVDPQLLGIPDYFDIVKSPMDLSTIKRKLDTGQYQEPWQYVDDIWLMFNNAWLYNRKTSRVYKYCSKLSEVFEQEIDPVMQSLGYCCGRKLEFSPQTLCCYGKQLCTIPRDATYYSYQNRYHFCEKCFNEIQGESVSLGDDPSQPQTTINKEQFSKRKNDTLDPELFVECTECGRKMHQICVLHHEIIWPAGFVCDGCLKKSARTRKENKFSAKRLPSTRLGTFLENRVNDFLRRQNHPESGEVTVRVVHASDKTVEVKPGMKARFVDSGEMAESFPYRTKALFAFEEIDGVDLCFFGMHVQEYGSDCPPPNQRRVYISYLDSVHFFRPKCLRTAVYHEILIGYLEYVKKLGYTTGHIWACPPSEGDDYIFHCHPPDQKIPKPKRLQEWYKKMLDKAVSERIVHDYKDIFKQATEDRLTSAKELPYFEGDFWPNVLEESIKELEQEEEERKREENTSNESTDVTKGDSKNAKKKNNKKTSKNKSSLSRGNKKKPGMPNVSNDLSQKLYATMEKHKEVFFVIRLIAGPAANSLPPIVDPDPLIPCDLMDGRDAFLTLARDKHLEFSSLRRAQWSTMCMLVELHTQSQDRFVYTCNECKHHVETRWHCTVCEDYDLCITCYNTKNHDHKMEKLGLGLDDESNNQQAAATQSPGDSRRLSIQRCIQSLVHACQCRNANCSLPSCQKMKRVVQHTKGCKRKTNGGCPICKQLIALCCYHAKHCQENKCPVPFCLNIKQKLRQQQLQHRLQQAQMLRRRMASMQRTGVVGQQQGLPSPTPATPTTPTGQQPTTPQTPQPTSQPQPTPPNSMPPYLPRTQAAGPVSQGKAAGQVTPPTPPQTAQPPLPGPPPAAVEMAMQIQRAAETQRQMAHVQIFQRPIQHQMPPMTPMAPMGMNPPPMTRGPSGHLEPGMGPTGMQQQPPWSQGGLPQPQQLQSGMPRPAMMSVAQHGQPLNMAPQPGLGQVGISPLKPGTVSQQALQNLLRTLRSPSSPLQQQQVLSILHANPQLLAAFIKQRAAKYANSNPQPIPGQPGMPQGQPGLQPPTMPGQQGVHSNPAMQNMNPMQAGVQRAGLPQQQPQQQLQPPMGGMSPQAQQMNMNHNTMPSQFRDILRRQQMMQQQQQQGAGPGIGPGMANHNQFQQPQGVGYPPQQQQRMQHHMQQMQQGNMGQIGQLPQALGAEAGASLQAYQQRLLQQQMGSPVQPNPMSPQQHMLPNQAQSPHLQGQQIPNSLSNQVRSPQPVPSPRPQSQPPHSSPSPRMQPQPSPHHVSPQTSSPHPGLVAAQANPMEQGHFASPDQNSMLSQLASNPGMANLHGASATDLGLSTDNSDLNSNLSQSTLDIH
structure (smiles),measurement,setting,value
"CC[C@H](C(=O)N1CCCC[C@H]1C(=O)O[C@H](CCc1ccc(OC)c(OC)c1)c1cccc(OCC(=O)NCCOCCOCCC(=O)NCCOc2ccc(CCc3nc4cc(-c5c(C)noc5C)ccc4n3CCN3CCOCC3)cc2)c1)c1cc(OC)c(OC)c(OC)c1 [AceTAG-1, (R)-3-(3,4-dimethoxyphenyl)-1-(3-((15-(4-(2-(5-(3,5-dimethylisoxazol-4-yl)-1-(2-morpholinoethyl)-1H-benzo[d]imidazol-2-yl)ethyl)phenoxy)-2,12-dioxo-6,9-dioxa-3,13-diazapentadecyl)oxy)phenyl)propyl (S)-1-((S)-2-(3,4,5-trimethoxyphenyl)butanoyl)piperidine-2-carboxylate]","acetylation at K18, K23, and K27 by quantitative MS",H3.3-FKBP12^F36V,substantial increases
same,acetylation at other identified lysines on H3.3 by quantitative MS,H3.3-FKBP12^F36V,no acetylation
same,acetylation of c-Myc and STAT3,[1]; FIG. 5B,no observable acetylation changes
same,broader acetylation perturbation (acetylated lysine immunoblot),[1]; FIG. 5C,no observable acetylation changes
